From US11459306B2, “Compounds, compositions, and methods for treating T-cell acute lymphoblastic leukemia” (The Trustees of Columbia University in the City of New York, priority 2017, dated 2022)

Columns and labels:
T-ALL cell line = assay: T-ALL cell viability / cell death; assay type: cell-based, murine
Experimental: Compounds DWL-PI3K-1, DWL-PI3K-2, DWL-PI3K-3, DWL-PI3K-4, DWL-PI3K-5, DWL-PI3K-6 and DWL-PI3K-7, and reference compounds CAL-130, tenalisib, duvelisib were evaluated for efficacy (cell viability by measuring ATP (CellTiter-Glo) or propidium iodide (PI) uptake) against a number of cancer cells, including LMO-2-007, OCI-LY-10, HH, H9, PF382 and CCRF-CEM.

[1] = Pharmacokinetics relative to CAL-130; assay type: in vivo
T-ALL = assay: Mice with genetically induced T-ALL expressing luciferase treated with DWL-PI3K-3; assay type: in vivo; details: 10 mg/kg every 12 h for 7 days; luciferin signal and Ki67/thy1.2 positive population
PIK3CB (PI3Kβ) = biological target: T1, PIK3CB (PI3Kβ) (Homo sapiens, UniProt P42338); assay: KINOMEscan competition binding assay (DiscoverX); details: DiscoveRx gene symbol PIK3CB (PI3Kβ)
T1 construct: purchased DiscoverX (KINOMEscan); host or cells: E. coli BL21-derived host (T7 phage) or HEK-293
T1 sequence (P42338 whole entry): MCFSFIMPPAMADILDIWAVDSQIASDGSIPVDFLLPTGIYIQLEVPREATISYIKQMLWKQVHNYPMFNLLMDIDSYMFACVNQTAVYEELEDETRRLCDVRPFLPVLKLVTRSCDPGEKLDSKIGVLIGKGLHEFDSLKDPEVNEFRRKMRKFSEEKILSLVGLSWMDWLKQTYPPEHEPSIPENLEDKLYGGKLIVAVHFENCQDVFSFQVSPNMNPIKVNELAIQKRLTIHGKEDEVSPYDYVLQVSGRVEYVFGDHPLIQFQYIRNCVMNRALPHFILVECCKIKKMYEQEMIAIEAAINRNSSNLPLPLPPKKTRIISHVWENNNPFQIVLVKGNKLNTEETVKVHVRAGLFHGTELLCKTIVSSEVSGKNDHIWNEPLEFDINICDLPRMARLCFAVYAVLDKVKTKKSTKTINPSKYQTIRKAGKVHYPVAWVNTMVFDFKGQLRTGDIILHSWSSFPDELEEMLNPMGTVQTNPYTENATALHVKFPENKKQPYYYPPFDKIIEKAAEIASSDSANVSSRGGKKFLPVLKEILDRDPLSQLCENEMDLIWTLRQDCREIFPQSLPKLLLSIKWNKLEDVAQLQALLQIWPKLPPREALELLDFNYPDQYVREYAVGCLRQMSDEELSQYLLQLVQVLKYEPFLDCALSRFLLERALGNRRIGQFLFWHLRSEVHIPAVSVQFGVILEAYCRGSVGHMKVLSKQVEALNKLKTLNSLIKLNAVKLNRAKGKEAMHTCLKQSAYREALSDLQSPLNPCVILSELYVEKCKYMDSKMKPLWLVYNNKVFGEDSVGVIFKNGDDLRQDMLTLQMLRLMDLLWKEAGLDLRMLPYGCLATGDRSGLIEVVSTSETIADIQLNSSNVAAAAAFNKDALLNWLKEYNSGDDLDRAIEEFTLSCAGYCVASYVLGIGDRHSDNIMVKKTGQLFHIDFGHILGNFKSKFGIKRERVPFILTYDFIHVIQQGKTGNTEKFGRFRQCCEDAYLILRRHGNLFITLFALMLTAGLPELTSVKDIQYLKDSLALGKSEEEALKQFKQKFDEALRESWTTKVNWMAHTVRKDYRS
Experimental: (§1) The compounds were tested using KINOMEscan™ (DiscoverX), which is based on a competition binding assay that quantitatively measures the ability of a compound to compete with an immobilized, active-site directed ligand. The assay is performed by combining three components: DNA-tagged kinase; immobilized ligand; and a test compound. The ability of the test compound to compete with the immobilized ligand is measured via quantitative PCR of the DNA tag.
(§2) For most assays, kinase-tagged T7 phage strains were prepared in an E. coli host derived from the BL21 strain. E. coli were grown to log-phase and infected with T7 phage and incubated with shaking at 32° C. until lysis. The lysates were centrifuged and filtered to remove cell debris. The remaining kinases were produced in HEK-293 cells and subsequently tagged with DNA for qPCR detection. Streptavidin-coated magnetic beads were treated with biotinylated small molecule ligands for 30 minutes at room temperature to generate affinity resins for kinase assays. The liganded beads were blocked with excess biotin and washed with blocking buffer (SeaBlock (Pierce), 1% BSA, 0.05% Tween 20, 1 mM DTT) to remove unbound ligand and to reduce non-specific binding. Binding reactions were assembled by combining kinases, liganded affinity beads, and test compounds in 1× binding buffer (20% SeaBlock, 0.17×PBS, 0.05% Tween 20, 6 mM DTT). Test compounds were prepared as 111× stocks in 100% DMSO. Kds were determined using an 11-point 3-fold compound dilution series with three DMSO control points. All compounds for Kd measurements are distributed by acoustic transfer (non-contact dispensing) in 100% DMSO. The compounds were then diluted directly into the assays such that the final concentration of DMSO was 0.9%. All reactions performed in polypropylene 384-well plate. Each was a final volume of 0.02 ml. The assay plates were incubated at room temperature with shaking for 1 hour and the affinity beads were washed with wash buffer (1×PBS, 0.05% Tween 20). The beads were then re-suspended in elution buffer (1×PBS, 0.05% Tween 20, 0.5 μM non-biotinylated affinity ligand) and incubated at room temperature with shaking for 30 minutes. The kinase concentration in the eluates was measured by qPCR.
(§3) An 11-point 3-fold serial dilution of each test compound was prepared in 100% DMSO at 100× final test concentration and subsequently diluted to 1× in the assay (final DMSO concentration=1%). Most Kds were determined using a compound top concentration=30,000 nM. If the initial Kd determined was <0.5 nM (the lowest concentration tested), the measurement was repeated with a serial dilution starting at a lower top concentration.
(§4) Binding constants (Kds) were calculated with a standard dose-response curve using the Hill equation: […]
(§5) The Hill Slope was set to −1. Curves were fitted using a non-linear least square fit with the Levenberg-Marquardt algorithm.

PIK3CG = biological target: T2, PIK3CG (Homo sapiens, UniProt P48736); assay: KINOMEscan competition binding assay (DiscoverX); details: DiscoveRx gene symbol PIK3CG (b251 prints: PI3Kδ)
T2 construct: purchased DiscoverX (KINOMEscan); host or cells: E. coli BL21-derived host (T7 phage) or HEK-293
T2 sequence (P48736 whole entry): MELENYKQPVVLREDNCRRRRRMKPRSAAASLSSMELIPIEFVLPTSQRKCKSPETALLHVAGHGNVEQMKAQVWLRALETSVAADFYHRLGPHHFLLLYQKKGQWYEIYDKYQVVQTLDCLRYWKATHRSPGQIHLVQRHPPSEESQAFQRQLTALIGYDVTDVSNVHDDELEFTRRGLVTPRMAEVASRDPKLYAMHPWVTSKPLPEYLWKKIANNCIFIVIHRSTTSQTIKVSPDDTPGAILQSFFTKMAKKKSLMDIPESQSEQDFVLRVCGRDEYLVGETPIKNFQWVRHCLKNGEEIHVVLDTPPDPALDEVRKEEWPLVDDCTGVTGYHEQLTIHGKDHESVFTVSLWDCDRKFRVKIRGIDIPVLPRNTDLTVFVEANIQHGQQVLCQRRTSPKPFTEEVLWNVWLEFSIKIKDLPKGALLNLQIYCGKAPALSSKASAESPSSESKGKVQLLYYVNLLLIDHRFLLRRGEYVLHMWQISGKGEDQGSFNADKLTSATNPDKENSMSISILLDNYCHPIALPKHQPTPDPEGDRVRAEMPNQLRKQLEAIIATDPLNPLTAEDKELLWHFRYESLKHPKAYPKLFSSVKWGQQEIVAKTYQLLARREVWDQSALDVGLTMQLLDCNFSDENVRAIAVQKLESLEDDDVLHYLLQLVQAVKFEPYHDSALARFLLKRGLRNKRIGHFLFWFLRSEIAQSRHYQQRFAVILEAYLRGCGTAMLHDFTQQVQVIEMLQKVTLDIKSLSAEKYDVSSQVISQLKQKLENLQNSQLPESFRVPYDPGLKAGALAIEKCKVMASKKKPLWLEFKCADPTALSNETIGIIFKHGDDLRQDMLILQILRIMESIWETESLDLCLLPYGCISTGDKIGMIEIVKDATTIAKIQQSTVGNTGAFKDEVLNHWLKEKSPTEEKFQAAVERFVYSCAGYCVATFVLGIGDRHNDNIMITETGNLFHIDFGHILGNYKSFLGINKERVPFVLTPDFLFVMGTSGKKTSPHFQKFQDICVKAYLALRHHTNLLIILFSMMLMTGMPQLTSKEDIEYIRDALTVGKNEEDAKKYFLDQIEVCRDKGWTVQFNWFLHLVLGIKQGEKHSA
Experimental: as §1, §2, §3, §4, §5

PIK3CA (PI3Kα) = biological target: T3, PIK3CA (PI3Kα) (Homo sapiens, UniProt P42336); assay: KINOMEscan competition binding assay (DiscoverX); details: DiscoveRx gene symbol PIK3CA (PI3Kα)
T3 construct: purchased DiscoverX (KINOMEscan); host or cells: E. coli BL21-derived host (T7 phage) or HEK-293
T3 sequence (P42336 whole entry): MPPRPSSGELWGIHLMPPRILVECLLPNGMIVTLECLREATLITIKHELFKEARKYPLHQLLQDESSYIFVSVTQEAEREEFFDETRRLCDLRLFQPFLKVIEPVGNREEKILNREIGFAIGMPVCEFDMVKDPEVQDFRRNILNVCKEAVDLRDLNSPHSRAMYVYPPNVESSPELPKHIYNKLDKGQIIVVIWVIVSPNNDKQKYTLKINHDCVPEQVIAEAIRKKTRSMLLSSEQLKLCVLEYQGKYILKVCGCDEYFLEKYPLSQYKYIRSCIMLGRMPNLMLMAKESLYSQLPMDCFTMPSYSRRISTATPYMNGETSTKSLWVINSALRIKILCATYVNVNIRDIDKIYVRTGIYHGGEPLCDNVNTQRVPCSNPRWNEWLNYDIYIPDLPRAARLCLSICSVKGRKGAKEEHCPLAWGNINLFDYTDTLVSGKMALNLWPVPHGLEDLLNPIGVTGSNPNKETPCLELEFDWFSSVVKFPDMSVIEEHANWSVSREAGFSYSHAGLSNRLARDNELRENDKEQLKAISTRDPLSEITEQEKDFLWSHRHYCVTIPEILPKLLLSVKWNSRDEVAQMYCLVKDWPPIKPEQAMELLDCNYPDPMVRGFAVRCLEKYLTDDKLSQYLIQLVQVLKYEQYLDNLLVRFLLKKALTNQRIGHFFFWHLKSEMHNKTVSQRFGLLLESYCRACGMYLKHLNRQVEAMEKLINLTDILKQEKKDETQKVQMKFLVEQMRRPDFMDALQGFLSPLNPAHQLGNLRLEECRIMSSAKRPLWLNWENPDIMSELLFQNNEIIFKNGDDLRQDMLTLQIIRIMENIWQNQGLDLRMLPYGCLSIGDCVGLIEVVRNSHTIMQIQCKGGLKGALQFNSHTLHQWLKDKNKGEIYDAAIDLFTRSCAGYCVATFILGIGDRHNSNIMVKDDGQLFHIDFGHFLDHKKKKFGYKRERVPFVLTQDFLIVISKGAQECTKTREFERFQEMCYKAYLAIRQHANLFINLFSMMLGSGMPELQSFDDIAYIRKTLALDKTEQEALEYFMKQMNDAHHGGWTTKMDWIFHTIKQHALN
Experimental: as §1, §2, §3, §4, §5

PIK3CD = biological target: T4, PIK3CD (Homo sapiens, UniProt O00329); assay: KINOMEscan competition binding assay (DiscoverX); details: DiscoveRx gene symbol PIK3CD (b251 prints: PI3Kγ)
T4 construct: purchased DiscoverX (KINOMEscan); host or cells: E. coli BL21-derived host (T7 phage) or HEK-293
T4 sequence (O00329 1-1044): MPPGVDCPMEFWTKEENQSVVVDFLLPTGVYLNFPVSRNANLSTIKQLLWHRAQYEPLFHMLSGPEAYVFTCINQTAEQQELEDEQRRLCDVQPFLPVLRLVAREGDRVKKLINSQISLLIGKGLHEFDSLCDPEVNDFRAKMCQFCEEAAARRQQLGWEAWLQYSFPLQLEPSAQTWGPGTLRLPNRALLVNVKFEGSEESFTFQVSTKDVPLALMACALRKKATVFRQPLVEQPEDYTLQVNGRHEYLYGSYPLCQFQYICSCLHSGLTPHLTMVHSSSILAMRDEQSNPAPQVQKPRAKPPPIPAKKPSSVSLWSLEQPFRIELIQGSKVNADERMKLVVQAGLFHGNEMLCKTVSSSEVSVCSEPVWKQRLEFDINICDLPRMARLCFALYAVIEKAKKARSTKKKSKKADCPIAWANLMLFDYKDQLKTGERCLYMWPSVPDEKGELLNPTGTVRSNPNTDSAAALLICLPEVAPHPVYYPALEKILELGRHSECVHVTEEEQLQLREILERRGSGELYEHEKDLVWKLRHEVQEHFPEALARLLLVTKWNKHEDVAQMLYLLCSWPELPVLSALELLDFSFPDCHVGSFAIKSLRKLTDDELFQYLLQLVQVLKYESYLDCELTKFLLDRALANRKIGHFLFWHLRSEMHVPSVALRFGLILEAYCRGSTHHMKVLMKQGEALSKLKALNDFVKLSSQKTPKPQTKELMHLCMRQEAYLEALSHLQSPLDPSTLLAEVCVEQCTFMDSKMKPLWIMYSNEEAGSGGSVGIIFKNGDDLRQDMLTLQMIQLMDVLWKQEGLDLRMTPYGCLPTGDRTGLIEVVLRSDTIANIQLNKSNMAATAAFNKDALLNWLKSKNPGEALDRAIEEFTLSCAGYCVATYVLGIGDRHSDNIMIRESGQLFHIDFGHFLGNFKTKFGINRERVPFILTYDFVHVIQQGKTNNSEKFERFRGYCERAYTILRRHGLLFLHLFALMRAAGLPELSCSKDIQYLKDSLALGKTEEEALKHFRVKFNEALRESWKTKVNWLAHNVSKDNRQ
Experimental: as §1, §2, §3, §4, §5

With C[C@H](Nc1nc(N)nc(N)c1C#N)c1cc2cccc(Cl)c2c(=O)n1-c1ccccc1 [DWL-PI3K-3, (S)-2,4-diamino-6-((1-(8-chloro-1-oxo-2-phenyl-1,2-dihydroisoquinolin-3-yl)ethyl)amino)pyrimidine-5-carbonitrile] the “efficacy in inducing T-ALL cell death relative to CAL-130” value (T-ALL cell line; cultured T-ALL cells) was “greater efficacy than CAL-130”, the “amount needed relative to CAL-130 to achieve a similar reduction in tumor cell survival” value (T-ALL cell line; relative to CAL-130) was “about 10 fold less” and the pharmacokinetics [1] was “better pharmacokinetics”. The tumor burden (T-ALL) was “significant reduction in tumor burden”, the Kd (PIK3CB (PI3Kβ)) was 0.084 nM and the Kd (PIK3CG) was 0.12 nM. It also gave a Kd (PIK3CA (PI3Kα)) of 4 nM and a Kd (PIK3CD) of 0.14 nM.
